Structures are written as SMILES.

The target of the test is T1, STING (Homo sapiens, UniProt Q86WV6, G230A/H232R/R293Q/R71H).
T1 construct: host or cells: THP1-Dual KO-IFNAR2 cells
T1 sequence (Q86WV6 whole entry R71H/G230A/H232R/R293Q): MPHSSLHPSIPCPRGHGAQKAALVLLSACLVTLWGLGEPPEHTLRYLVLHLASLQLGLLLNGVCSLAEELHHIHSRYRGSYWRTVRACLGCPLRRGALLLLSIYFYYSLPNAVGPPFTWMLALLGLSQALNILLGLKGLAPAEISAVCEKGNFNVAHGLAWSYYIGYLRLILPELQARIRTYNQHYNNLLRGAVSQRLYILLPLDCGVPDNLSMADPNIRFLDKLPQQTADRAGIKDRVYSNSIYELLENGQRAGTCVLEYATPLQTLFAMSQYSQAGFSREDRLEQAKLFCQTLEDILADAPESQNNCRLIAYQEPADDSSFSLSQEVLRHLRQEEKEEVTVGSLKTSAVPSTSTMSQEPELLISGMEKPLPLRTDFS
In words: STING reporter assay (luciferase) in THP1-Dual KO-IFNAR2 cells stimulated with 2′3′cGAMP. Type of test: cell-based. As to conditions: 2′3′cGAMP 15 μM final, 24 h, luciferase reporter activity, read-out: Pharmaron, THP1_IFNAR2 STING 24 h Luci Normalized: GeoMean EC50. In a few lines:
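THP1-Dual KO-IFNAR2 cells (2×10E6 cells/mL) exposed to compounds at 0.0017-100 μM final and stimulated with 2′3′cGAMP (15 μM final) delivered via Lipofectamine 2000. After 24 h at 37° C., secreted luciferase in supernatant read with QUANTI-Luc Plus; EC50 derived from luminescence.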
Take `O=C(Nc1c[nH]c2ccc(OCC[C@@H]3C[C@@H]4CN(CC(F)(F)F)C[C@@H]4C3)cc12)C1CC2C(C1)C2(F)F` (stereo partly drawn) [Compound 208, 6,6-difluoro-N-(5-(2-((3aR,5r,6aS)-2-(2,2,2-trifluoroethyl)octahydrocyclopenta[c]pyrrol-5-yl)ethoxy)-1H-indol-3-yl)bicyclo[3.1.0]hexane-3-carboxamide]: the EC50 (in general, the concentration at which the effect is half-maximal) lay in the range of 200 to 1000 nM.
The value for `O=C(Nc1c[nH]c2ccc(OCC[C@@H]3C[C@@H]4CN(CC(F)(F)F)C[C@@H]4C3)cc12)C1C2COCC21` (stereo partly drawn) [Compound 210, N-(5-(2-((3aR,5r,6aS)-2-(2,2,2-trifluoroethyl)octahydrocyclopenta[c]pyrrol-5-yl)ethoxy)-1H-indol-3-yl)-3-oxabicyclo[3.1.0]hexane-6-carboxamide] was 200 to 1000 nM; that for `O=C(Nc1c[nH]c2ccc(O[C@H]3C[C@H](c4ccc(C(F)(F)F)cc4)C3)cc12)C1CC2(COC2)C1` [Compound 211, N-{5-[(1R,3R)-3-[4-(trifluoromethyl)phenyl]cyclobutoxy]-1H-indol-3-yl}-2-oxaspiro[3.3]heptane-6-carboxamide] was 40 to 200 nM.
As for `O=C(Nc1c[nH]c2ccc(O[C@H]3C[C@H](c4ccc(C(F)(F)F)cc4)C3)cc12)C12CC(C1)C2` [Compound 212, N-{5-[(1R,3R)-3-[4-(trifluoromethyl)phenyl]cyclobutoxy]-1H-indol-3-yl}bicyclo[1.1.1]pentane-1-carboxamide], the EC50 fell in the range of 40 to 200 nM.
As for `O=C(Nc1c[nH]c2ccc(O[C@H]3C[C@H](c4ccc(C(F)(F)F)nc4)C3)cc12)c1ccc(C(F)(F)F)cc1` [Compound 213, 4-(trifluoromethyl)-N-(5-(trans-3-(6-(trifluoromethyl)pyridin-3-yl)cyclobutoxy)-1H-indol-3-yl)benzamide], the figure is 200 to 1000 nM.
As for `O=C(Nc1c[nH]c2ccc(O[C@H]3C[C@@H](c4ccc(C(F)(F)F)nc4)C3)cc12)c1ccc(C(F)(F)F)cc1` [Compound 214, 4-(trifluoromethyl)-N-(5-(cis-3-(6-(trifluoromethyl)pyridin-3-yl)cyclobutoxy)-1H-indol-3-yl)benzamide], the figure is 40 to 200 nM.
The value for `O=C(Nc1c[nH]c2ccc(O[C@H]3C[C@H](c4ccc(C(F)(F)F)nc4)C3)cc12)c1ccccc1` [Compound 215, N-(5-(trans-3-(6-(trifluoromethyl)pyridin-3-yl)cyclobutoxy)-1H-indol-3-yl)benzamide] was 200 to 1000 nM; that for `O=C(Nc1c[nH]c2ccc(O[C@H]3C[C@@H](c4ccc(C(F)(F)F)nc4)C3)cc12)c1ccccc1` [Compound 216, N-(5-(cis-3-(6-(trifluoromethyl)pyridin-3-yl)cyclobutoxy)-1H-indol-3-yl)benzamide] was 40 to 200 nM; that for `Cn1cc(C(=O)Nc2c[nH]c3ccc(O[C@H]4C[C@@H](c5ccc(C(F)(F)F)nc5)C4)cc23)nn1` [Compound 217, 1-methyl-N-(5-(cis-3-(6-(trifluoromethyl)pyridin-3-yl)cyclobutoxy)-1H-indol-3-yl)-1H-1,2,3-triazole-4-carboxamide] was 200 to 1000 nM.
Take `O=C(Nc1c[nH]c2ccc(OCc3ccc(C(F)(F)F)cc3)cc12)c1ccccc1` [Compound 218, N-(5-((4-(trifluoromethyl)benzyl)oxy)-1H-indol-3-yl)benzamide]: the EC50 is 200 to 1000 nM.
The value for `Cn1cc(C(=O)Nc2c[nH]c3ccc(O[C@H]4C[C@H](c5ccc(C(F)(F)F)nc5)C4)cc23)nn1` [Compound 219, 1-methyl-N-(5-(trans-3-(6-(trifluoromethyl)pyridin-3-yl)cyclobutoxy)-1H-indol-3-yl)-1H-1,2,3-triazole-4-carboxamide] was 200 to 1000 nM.
Regarding `Cn1ccnc1C(=O)Nc1c[nH]c2ccc(O[C@H]3C[C@H](c4ccc(C(F)(F)F)cc4)C3)cc12` [Compound 220, 1-methyl-N-{5-[(1R,3R)-3-[4-(trifluoromethyl)phenyl]cyclobutoxy]-1H-indol-3-yl}-1H-imidazole-2-carboxamide], the EC50 was 200 to 1000 nM.
Consider `O=C(Nc1c[nH]c2ccc(OCc3ccc(C(F)(F)F)cc3)cc12)C1CC2(CC2)C1` [Compound 221, N-(5-{[4-(trifluoromethyl)phenyl]methoxy}-1H-indol-3-yl)spiro[2.3]hexane-5-carboxamide], for which the EC50 was in the range of 200 to 1000 nM.
For the molecule `O=C(Nc1c[nH]c2ccc(OCC[C@@H]3C[C@@H]4CN(CC(F)(F)F)C[C@@H]4C3)cc12)C1CC2(CC2)C1` [Compound 222, N-(5-{2-[(3aR,5R,6aS)-2-(2,2,2-trifluoroethyl)octahydrocyclopenta[c]pyrrol-5-yl]ethoxy}-1H-indol-3-yl)spiro[2.3]hexane-5-carboxamide], the EC50 lay within 200 to 1000 nM.
The value for `O=C(Nc1c[nH]c2ccc(OCC[C@@H]3C[C@@H]4CN(CC(F)(F)F)C[C@@H]4C3)cc12)C1CC12CCC2` (stereo partly drawn) [Compound 223, N-(5-(2-((3aR,5R,6aS)-2-(2,2,2-trifluoroethyl)octahydrocyclopenta [c]pyrrol-5-yl)ethoxy)-1H-indol-3-yl)spiro[2.3]hexane-1-carboxamide] was 200 to 1000 nM.
For the molecule `O=C(Nc1c[nH]c2ccc(OCC[C@@H]3C[C@@H]4CN(CC(F)(F)F)C[C@@H]4C3)cc12)c1ccccc1` [Compound 224, N-(5-(2-((3aR,5r,6aS)-2-(2,2,2-trifluoroethyl)octahydrocyclopenta[c]pyrrol-5-yl)ethoxy)-1H-indol-3-yl)benzamide], the EC50 lay within 200 to 1000 nM.
As for `O=C(Nc1c[nH]c2ccc(O[C@H]3C[C@H](c4ccc(C(F)(F)F)cc4)C3)cc12)c1ccncc1` [Compound 225, N-{5-[(1R,3R)-3-[4-(trifluoromethyl)phenyl]cyclobutoxy]-1H-indol-3-yl}pyridine-4-carboxamide], the figure is 200 to 1000 nM; as for `O=C(Nc1c[nH]c2ccc(O[C@H]3C[C@H](c4ccc(C(F)(F)F)cc4)C3)cc12)c1ccn[nH]1` [Compound 226, N-{5-[(1R,3R)-3-[4-(trifluoromethyl)phenyl]cyclobutoxy]-1H-indol-3-yl}-1H-pyrazole-5-carboxamide], 40 to 200 nM.
Turning to `O=C(Nc1c[nH]c2ccc(O[C@H]3C[C@H](c4ccc(C(F)(F)F)cc4)C3)cc12)c1cccnc1` [Compound 227, N-{5-[(1R,3R)-3-[4-(trifluoromethyl)phenyl]cyclobutoxy]-1H-indol-3-yl}pyridine-3-carboxamide], the EC50 was 200 to 1000 nM.
As for `O=C(Nc1c[nH]c2ccc(O[C@H]3C[C@H](c4ccc(C(F)(F)F)cc4)C3)cc12)c1ccccn1` [Compound 228, N-{5-[(1R,3R)-3-[4-(trifluoromethyl)phenyl]cyclobutoxy]-1H-indol-3-yl}pyridine-2-carboxamide], the figure is 200 to 1000 nM.
The value for `O=C(Nc1c[nH]c2ccc(O[C@H]3C[C@H](c4ccc(C(F)(F)F)cc4)C3)cc12)C1CC2(CC2)C1` [Compound 229, N-{5-[(1R,3R)-3-[4-(trifluoromethyl)phenyl]cyclobutoxy]-1H-indol-3-yl}spiro[2.3]hexane-5-carboxamide] was 40 to 200 nM; that for `O=C(Nc1c[nH]c2ccc(O[C@H]3C[C@H](c4ccc(C(F)(F)F)cc4)C3)cc12)C1CC12CCC2` (stereo partly drawn) [Compound 230, N-{5-[(1R,3R)-3-[4-(trifluoromethyl)phenyl]cyclobutoxy]-1H-indol-3-yl}spiro[2.3]hexane-1-carboxamide] was 40 to 200 nM.

(Values after patent US20230250060A1 (IFM Due, Inc., priority 2022, published 2023).)
